Consider 10 molecules from PubChem BioAssay (NCI).

What all share (experiment): NCI tumour cell line growth inhibition, 48 h
The test system of assay [1] is DLD-1 colon.
Assay [2] has as its system XF 498 CNS.
In assay [3] the test system is KM20L2 colon.
The test system of assay [4] is DMS 273 small cell lung.
Assay [5] relates to RXF-631 renal.
The subject of assay [6] is HOP-18 NSCLC.
In assay [7] the test system is MDA-N.
The subject of assay [8] is T-47D breast.
The subject of assay [9] is P388/ADR leukemia.
Assay [10] deals with SN12K1 renal.
Assay [11] has as its system P388 leukemia.

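Grown in 96-well plates, cells were treated for 48 hours with each compound at five concentrations. Insufficient inhibition: endpoint recorded as highest concentration tested. TGI is the concentration that stops growth completely.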

For `COC(=O)C(Cc1nc2ccccc2[nH]c1=O)C(=O)C(=O)Nc1ccc([N+](=O)[O-])cc1[N+](=O)[O-]` (stereo not given), the TGI in [1] turned out to be 42 µM; in assay [2] it was 34.6 µM; in assay [3] it was 38.3 µM; in assay [4], 47.5 µM; in assay [5] it was 73.1 µM; in assay [6], 32.1 µM.
For the molecule `C[N+](C)(C)CC(=O)N/N=C(\C(=O)NC1=C(Cl)C(=O)c2ccccc2C1=O)C(C#N)c1csc(-c2ccc([N+](=O)[O-])cc2)n1` (stereo not given), the TGI in assay [1], in [2], in assay [3], in [4], in [5] and in [6] was greater than 100 µM in each case.
For the molecule `CCOc1cccc2ccc[n+](CC)c12`, the TGI in [1], in assay [2], in [3], in assay [4], in assay [5] and in [6] was greater than 100 µM each time.
Regarding `COC(C(=O)NCCCCNC(=O)C(OC)c1ccccc1)c1ccccc1` (stereo not given), the TGI in assay [1], in assay [2], in assay [3], in assay [4], in [5] and in assay [6] was greater than 100 µM in each case.
On to `CC[N+]1(C)CCC(O)(c2ccc(OC)cc2)C(C(=O)c2ccc(OC)cc2)C1` (stereo not given), for which the TGI in assay [1] amounted to 8.03 µM; in assay [2], 23.3 µM; in [3], 46.2 µM; in assay [4], 43.1 µM; in [7] it was 31.9 µM; in assay [8], 33.8 µM. Further, the TGI in assay [5] came out at 34.5 µM; in assay [6] it was 32.6 µM.
As for `CCCN(CCCC(NC(C)=O)C(=O)NCc1ccccc1)C(=O)NCCCl` (stereo not given), the TGI in assay [1], in [2], in [3], in assay [4], in assay [5] and in assay [6] was greater than 100 µM throughout.
`Cc1cc(N(CCC#N)S(C)(=O)=O)ccc1C=Nc1ccc(C(=O)NN2C(=O)/C(=C/c3ccc(N(CCC#N)CCC#N)cc3C)N=C2c2cc([N+](=O)[O-])ccc2Cl)cc1`: the TGI in assay [1], in assay [2], in assay [3], in [4], in assay [5] and in [6] was greater than 100 µM in each case.
As for `CCOC(=N)/C(=C1\OC(N)=C(c2ccc(Cl)cc2)C1=O)c1ccc(Cl)cc1`, the TGI in assay [1] turned out to be 28.8 µM; in assay [2], 23.6 µM; in assay [3], 37.1 µM; in [4], 34.4 µM; in assay [5] it was 80.4 µM; in [6], 72.6 µM.
Consider `CCc1cc(CCC(=O)Nc2c(C)cccc2C)[nH]n1`, for which the TGI in [1], in assay [2], in [3], in [4], in assay [5] and in [6] was greater than 100 µM each time.
Consider `Nc1ccn(C2OC(COC(=O)C34CC5CC(CC(C5)C3)C4)C(O)C2O)c(=O)n1` (stereo not given), for which the TGI in assay [1], in [3], in [4], in [9], in [10] and in assay [11] was greater than 100 µM throughout. Moreover, the TGI in assay [7], in [8] and in [6] was greater than 100 µM each time.
